Common to all, as to experiment: cell-based
The target of assay [1] is hNav1.3 (Homo sapiens, UniProt Q9NY46).
For assay [2], the target named is hNav1.7 (Homo sapiens, UniProt Q15858). In kind it is cell-based.
Assay [3] has as its target hNav1.5 (Homo sapiens, UniProt Q14524).
Setting [4] is: IonWorks Quattro, use-dependent protocol, hNav1.3, read-out: IWQ Use Nav1.3.
The mark [5] stands for this setting: IonWorks Quattro, use-dependent protocol, hNav1.7, read-out: IWQ Use Nav1.7.
The mark [6] stands for this setting: IonWorks Quattro, use-dependent protocol, hNav1.5, read-out: IWQ Use Nav1.5.
The mark [7] stands for this setting: IonWorks Quattro, Use, read-out: IWQ Use Nav1.3.
[8] abbreviates: IonWorks Quattro, Use, read-out: IWQ Use Nav1.7.
Setting [9] is: IonWorks Quattro, Use, read-out: IWQ Use Nav1.5.

Each structure is given as a SMILES string. Like-named read-outs stand apart in the source and are kept apart here. Positions of bridges follow the written chain, without caps; N, C: chain ends. Non-standard residues stand in square brackets, D forms with d. Residues, ends and D or L forms follow the SMILES beside them. Trp(1-Me) = Cn1cc(C[C@H](N)C(=O)O)c2ccccc21; Lys(Me2) = CN(C)CCCC[C@H](N)C(=O)O

hNav1.5, sequence (Q14524 whole entry, looked up): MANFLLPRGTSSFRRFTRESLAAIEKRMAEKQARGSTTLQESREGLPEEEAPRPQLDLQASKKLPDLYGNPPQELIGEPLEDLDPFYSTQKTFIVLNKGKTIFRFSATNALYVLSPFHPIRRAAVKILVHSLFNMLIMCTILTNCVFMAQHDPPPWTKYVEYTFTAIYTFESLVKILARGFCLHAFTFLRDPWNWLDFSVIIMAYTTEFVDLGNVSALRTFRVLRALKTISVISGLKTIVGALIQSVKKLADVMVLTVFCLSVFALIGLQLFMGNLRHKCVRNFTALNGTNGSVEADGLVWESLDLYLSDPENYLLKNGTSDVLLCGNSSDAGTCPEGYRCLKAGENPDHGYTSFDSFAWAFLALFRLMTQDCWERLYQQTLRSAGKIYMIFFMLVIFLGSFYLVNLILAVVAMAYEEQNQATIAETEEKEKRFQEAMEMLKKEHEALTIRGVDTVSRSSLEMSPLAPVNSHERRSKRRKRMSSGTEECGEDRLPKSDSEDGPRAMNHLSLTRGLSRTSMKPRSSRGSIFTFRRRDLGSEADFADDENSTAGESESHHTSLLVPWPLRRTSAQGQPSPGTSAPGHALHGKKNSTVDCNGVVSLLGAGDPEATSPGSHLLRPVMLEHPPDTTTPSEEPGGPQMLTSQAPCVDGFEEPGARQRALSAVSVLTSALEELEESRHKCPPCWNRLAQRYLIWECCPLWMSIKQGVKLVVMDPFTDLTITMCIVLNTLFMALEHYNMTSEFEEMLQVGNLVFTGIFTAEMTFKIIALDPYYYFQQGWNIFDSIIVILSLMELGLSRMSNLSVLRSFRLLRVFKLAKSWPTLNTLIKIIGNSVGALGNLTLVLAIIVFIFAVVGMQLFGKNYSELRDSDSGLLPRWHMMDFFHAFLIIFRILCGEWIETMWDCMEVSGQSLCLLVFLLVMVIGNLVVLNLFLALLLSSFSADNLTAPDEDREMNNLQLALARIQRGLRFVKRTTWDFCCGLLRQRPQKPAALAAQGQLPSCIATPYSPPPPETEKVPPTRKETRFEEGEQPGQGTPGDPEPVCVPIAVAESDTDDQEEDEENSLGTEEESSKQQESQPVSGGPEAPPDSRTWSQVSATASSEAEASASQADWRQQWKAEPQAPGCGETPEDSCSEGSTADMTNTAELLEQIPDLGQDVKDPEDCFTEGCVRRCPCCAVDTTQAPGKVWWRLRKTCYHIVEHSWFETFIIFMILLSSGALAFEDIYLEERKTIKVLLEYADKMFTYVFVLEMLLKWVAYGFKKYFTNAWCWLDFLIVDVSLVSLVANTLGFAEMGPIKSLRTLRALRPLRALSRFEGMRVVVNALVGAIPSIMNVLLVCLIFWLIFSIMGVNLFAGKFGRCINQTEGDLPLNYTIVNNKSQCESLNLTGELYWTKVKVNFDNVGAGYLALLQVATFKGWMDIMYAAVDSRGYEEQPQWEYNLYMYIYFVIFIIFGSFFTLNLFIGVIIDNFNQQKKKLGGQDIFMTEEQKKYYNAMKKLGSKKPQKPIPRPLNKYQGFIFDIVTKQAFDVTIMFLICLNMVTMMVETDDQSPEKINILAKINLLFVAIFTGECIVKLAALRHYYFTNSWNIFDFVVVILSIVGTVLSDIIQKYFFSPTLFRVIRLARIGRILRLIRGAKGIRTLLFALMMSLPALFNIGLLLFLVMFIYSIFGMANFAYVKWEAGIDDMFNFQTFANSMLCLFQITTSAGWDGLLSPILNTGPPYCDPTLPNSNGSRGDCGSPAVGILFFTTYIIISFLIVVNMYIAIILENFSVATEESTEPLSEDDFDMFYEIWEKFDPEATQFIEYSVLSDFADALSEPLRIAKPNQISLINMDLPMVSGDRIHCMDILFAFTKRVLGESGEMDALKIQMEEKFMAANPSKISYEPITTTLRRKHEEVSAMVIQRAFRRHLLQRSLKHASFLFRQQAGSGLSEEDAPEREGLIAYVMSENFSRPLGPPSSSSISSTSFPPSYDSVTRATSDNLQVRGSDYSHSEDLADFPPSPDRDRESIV
hNav1.3, sequence (Q9NY46 whole entry, looked up): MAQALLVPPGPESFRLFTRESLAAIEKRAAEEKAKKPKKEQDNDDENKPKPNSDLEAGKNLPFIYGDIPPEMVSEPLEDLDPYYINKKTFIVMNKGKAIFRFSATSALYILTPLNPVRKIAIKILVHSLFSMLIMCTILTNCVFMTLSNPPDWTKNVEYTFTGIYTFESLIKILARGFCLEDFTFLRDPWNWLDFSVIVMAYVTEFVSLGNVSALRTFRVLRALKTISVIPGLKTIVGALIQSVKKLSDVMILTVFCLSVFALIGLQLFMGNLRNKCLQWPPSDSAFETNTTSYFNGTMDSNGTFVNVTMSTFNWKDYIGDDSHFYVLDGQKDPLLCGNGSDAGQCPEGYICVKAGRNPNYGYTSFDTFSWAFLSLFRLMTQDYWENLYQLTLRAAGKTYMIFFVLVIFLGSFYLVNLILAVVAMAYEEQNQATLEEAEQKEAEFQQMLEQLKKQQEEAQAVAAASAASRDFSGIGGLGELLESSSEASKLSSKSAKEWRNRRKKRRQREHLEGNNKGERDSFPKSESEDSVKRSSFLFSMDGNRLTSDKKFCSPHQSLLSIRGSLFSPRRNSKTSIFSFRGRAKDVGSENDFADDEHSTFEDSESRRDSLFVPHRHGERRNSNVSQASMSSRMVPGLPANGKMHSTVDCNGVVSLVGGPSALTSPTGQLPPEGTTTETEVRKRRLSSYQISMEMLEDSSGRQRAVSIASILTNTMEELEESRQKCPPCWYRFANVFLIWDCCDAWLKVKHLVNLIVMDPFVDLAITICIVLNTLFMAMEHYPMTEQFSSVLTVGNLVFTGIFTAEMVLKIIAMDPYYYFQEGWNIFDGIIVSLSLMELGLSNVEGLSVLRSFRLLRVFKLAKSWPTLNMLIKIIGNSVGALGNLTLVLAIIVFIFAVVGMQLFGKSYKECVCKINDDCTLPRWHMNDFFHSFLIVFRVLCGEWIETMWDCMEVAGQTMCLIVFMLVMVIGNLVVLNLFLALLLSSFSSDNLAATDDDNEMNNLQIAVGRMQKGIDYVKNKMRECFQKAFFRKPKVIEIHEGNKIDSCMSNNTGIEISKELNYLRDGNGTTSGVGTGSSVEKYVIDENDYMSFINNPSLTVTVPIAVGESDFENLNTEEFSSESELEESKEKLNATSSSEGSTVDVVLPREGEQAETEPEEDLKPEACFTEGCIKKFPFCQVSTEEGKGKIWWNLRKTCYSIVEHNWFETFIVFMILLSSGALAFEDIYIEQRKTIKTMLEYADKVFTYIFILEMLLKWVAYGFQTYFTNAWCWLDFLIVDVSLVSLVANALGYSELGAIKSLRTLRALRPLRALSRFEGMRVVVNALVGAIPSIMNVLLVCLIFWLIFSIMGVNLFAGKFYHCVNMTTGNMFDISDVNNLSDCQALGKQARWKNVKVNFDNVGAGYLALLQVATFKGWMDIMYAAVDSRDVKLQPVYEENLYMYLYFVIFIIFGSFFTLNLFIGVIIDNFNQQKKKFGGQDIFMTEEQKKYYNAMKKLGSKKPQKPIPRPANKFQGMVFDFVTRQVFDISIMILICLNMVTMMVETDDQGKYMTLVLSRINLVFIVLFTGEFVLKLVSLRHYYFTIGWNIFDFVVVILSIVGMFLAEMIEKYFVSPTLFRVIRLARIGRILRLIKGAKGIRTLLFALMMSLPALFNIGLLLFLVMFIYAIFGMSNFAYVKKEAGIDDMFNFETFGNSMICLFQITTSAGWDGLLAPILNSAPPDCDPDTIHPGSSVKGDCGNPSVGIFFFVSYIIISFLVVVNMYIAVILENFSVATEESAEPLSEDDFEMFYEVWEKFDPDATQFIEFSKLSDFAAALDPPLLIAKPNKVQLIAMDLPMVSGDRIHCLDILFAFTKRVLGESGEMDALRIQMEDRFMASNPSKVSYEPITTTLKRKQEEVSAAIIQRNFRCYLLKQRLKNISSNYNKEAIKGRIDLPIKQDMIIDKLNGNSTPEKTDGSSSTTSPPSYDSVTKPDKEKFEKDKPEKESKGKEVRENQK

Take `CC[C@H](C)[C@@H]1NC(=O)[C@@H]2CSSC[C@@H]3NC(=O)[C@H](C(C)C)NC(=O)[C@H](CC(C)C)NC(=O)[C@H](CC(N)=O)NC(=O)[C@@H]4CCCN4C(=O)[C@H](CCCNC(=N)N)NC(=O)[C@H](CSSC[C@H](NC(=O)[C@@H](N)CC(=O)O)C(=O)N[C@@H](CC(C)C)C(=O)NCC(=O)N[C@@H](Cc4ccc(C(=O)c5ccccc5)cc4)C(=O)N[C@@H](CCSC)C(=O)N[C@@H](CCCNC(=N)N)C(=O)N[C@@H](CCCCN)C(=O)N2)NC(=O)[C@H](CSSC[C@@H](C(=O)N[C@@H](CCCCN)C(=O)N[C@@H](Cc2ccc(O)cc2)C(=O)N[C@H](C(=O)N[C@@H](Cc2ccccc2)C(N)=O)C(C)C)NC(=O)[C@H](Cc2c[nH]c4ccccc24)NC(=O)[C@H](CCCCN)NC(=O)[C@H](Cc2c[nH]cn2)NC(=O)[C@H]([C@@H](C)O)NC(=O)[C@H](CCCNC(=N)N)NC(=O)[C@H](CO)NC3=O)NC(=O)[C@H](CCCCN)NC(=O)[C@H](CC(=O)O)NC(=O)[C@H](CC(N)=O)NC(=O)[C@H](CC(=O)O)NC(=O)[C@@H]2CCCN2C1=O` [compound 685]: the results for the IC50 in assay [1] (setting [4]), in assay [2] (setting [5]) and in assay [3] (setting [6]) were 0.15 µM, 0.68 µM and greater than 5 µM, respectively.

Regarding `CC[C@H](C)[C@@H]1NC(=O)[C@@H]2CSSC[C@@H]3NC(=O)[C@H](C(C)C)NC(=O)[C@H](CC(C)C)NC(=O)[C@H](CC(N)=O)NC(=O)[C@@H]4CCCN4C(=O)[C@H](CCCNC(=N)N)NC(=O)[C@H](CSSC[C@H](NC(=O)[C@@H](N)CC(=O)O)C(=O)N[C@@H](CC(C)C)C(=O)NCC(=O)N[C@@H](Cc4ccccc4)C(=O)N[C@@H](CCSC)C(=O)N[C@@H](CCCNC(=N)N)C(=O)N[C@@H](CCCCN)C(=O)N2)NC(=O)[C@H](CSSC[C@@H](C(=O)N[C@@H](CCCCN)C(=O)N[C@@H](Cc2ccc(O)cc2)C(=O)N[C@H](C(=O)N[C@@H](Cc2ccccc2)C(N)=O)C(C)C)NC(=O)[C@H](Cc2c[nH]c4ccccc24)NC(=O)[C@H](CCCCN)NC(=O)[C@H](Cc2cnc[nH]2)NC(=O)[C@H]([C@@H](C)O)NC(=O)[C@H](CCCNC(=N)N)NC(=O)[C@H](CO)NC3=O)NC(=O)[C@H](CCCCN)NC(=O)[C@H](CC(=O)O)NC(=O)[C@H](CC(N)=O)NC(=O)[C@H](CC(=O)O)NC(=O)[C@H](C)NC1=O` [compound 46] (H-DCLGFMRKCIADNDKCCRPNLVCSRTHKWCKYVF-NH2; disulfide 2-17, 9-23, 16-30), the results for the IC50 in assay [1] (setting [7]), in assay [2] (setting [8]) and in assay [3] (setting [9]) were 0.18 µM, 0.21 µM and 16.1 µM, respectively.

For the compound `CC[C@H](C)[C@@H]1NC(=O)[C@@H]2CSSC[C@@H]3NC(=O)[C@H](C(C)C)NC(=O)[C@H](CC(C)C)NC(=O)[C@H](CC(N)=O)NC(=O)[C@@H]4CCCN4C(=O)[C@H](CCCNC(=N)N)NC(=O)[C@H](CSSC[C@H](NC(=O)[C@@H](N)CC(=O)O)C(=O)N[C@@H](CC(C)C)C(=O)NCC(=O)N[C@@H](Cc4ccccc4)C(=O)N[C@@H](CCSC)C(=O)N[C@@H](CCCNC(=N)N)C(=O)N[C@@H](CCCCN)C(=O)N2)NC(=O)[C@H](CSSC[C@@H](C(=O)N[C@@H](CCCCN)C(=O)N[C@@H](Cc2cn(C)c4ccccc24)C(=O)N[C@H](C(=O)N[C@@H](Cc2ccccc2)C(N)=O)C(C)C)NC(=O)[C@H](Cc2c[nH]c4ccccc24)NC(=O)[C@H](CCCCN)NC(=O)[C@H](Cc2c[nH]cn2)NC(=O)[C@H]([C@@H](C)O)NC(=O)[C@H](CCCNC(=N)N)NC(=O)[C@H](CO)NC3=O)NC(=O)[C@H](CCCCN)NC(=O)[C@H](CC(=O)O)NC(=O)[C@H](CC(N)=O)NC(=O)[C@H](CC(=O)O)NC(=O)[C@@H]2CCCN2C1=O` [compound 246] (H-DCLGFMRKCIPDNDKCCRPNLVCSRTHKWCK[Trp(1-Me)]VF-NH2; disulfide 2-17, 9-23, 16-30), the IC50 was 0.03 µM in assay [1] (Table 25, IonWorks Quattro, use, […], read-out: IWQ Use Nav1.3); 0.06 µM in assay [2] (Table 25, IonWorks Quattro, use, […], read-out: IWQ Use Nav1.7); 14.4 µM in assay [3] (Table 25, IonWorks Quattro, use, […], read-out: IWQ Use Nav1.5).

As for `CC[C@H](C)[C@@H]1NC(=O)[C@@H]2CSSC[C@@H]3NC(=O)[C@H](C(C)C)NC(=O)[C@H](CC(C)C)NC(=O)[C@H](CC(N)=O)NC(=O)[C@@H]4CCCN4C(=O)[C@H](CCCNC(=N)N)NC(=O)[C@H](CSSC[C@H](NC(=O)[C@@H](N)CC(=O)O)C(=O)N[C@@H](CC(C)C)C(=O)NCC(=O)N[C@@H](Cc4ccccc4)C(=O)N[C@@H](CCSC)C(=O)N[C@@H](CCCNC(=N)N)C(=O)N[C@@H](CCCCN)C(=O)N2)NC(=O)[C@H](CSSC[C@@H](C(=O)N[C@@H](CCCCN)C(=O)N[C@@H](Cc2ccc(O)cc2)C(=O)N[C@H](C(=O)N[C@@H](Cc2ccccc2)C(N)=O)C(C)C)NC(=O)[C@H](CCCCN)NC(=O)[C@H](CCCCN)NC(=O)[C@H](Cc2cnc[nH]2)NC(=O)[C@H]([C@@H](C)O)NC(=O)[C@H](CCCNC(=N)N)NC(=O)[C@H](CO)NC3=O)NC(=O)[C@H](CCCCN)NC(=O)[C@H](CC(=O)O)NC(=O)[C@H](CC(N)=O)NC(=O)[C@H](CC(=O)O)NC(=O)[C@@H]2CCCN2C1=O` [compound 56] (H-DCLGFMRKCIPDNDKCCRPNLVCSRTHKKCKYVF-NH2; disulfide 2-17, 9-23, 16-30), the IC50 in assay [1] was found to be 24.5 µM; in assay [2], 20.1 µM; in assay [3] (IWQ Use Nav1.5 (μM)), 14.7 µM.

For the compound `CC[C@H](C)[C@@H]1NC(=O)[C@@H]2CSSC[C@@H]3NC(=O)[C@H](C(C)C)NC(=O)[C@H](CC(C)C)NC(=O)[C@H](CC(N)=O)NC(=O)[C@@H]4CCCN4C(=O)[C@H](CCCNC(=N)N)NC(=O)[C@H](CSSC[C@H](NC(=O)[C@@H](N)CC(=O)O)C(=O)N[C@@H](CC(C)C)C(=O)NCC(=O)N[C@@H](C(C)C)C(=O)N[C@@H](CCSC)C(=O)N[C@@H](CCCNC(=N)N)C(=O)N[C@@H](CCCCN)C(=O)N2)NC(=O)[C@H](CSSC[C@@H](C(=O)N[C@@H](CCCCN)C(=O)N[C@@H](Cc2ccc(O)cc2)C(=O)N[C@H](C(=O)N[C@@H](Cc2ccccc2)C(N)=O)C(C)C)NC(=O)[C@H](Cc2c[nH]c4ccccc24)NC(=O)[C@H](CCCCN)NC(=O)[C@H](Cc2c[nH]cn2)NC(=O)[C@H]([C@@H](C)O)NC(=O)[C@H](CCCNC(=N)N)NC(=O)[C@H](CO)NC3=O)NC(=O)[C@H](CCCCN)NC(=O)[C@H](CC(=O)O)NC(=O)[C@H](CC(N)=O)NC(=O)[C@H](CCC(=O)O)NC(=O)[C@@H]2CCCN2C1=O` [compound 711] (H-DCLGVMRKCIPENDKCCRPNLVCSRTHKWCKYVF-NH2; disulfide 2-17, 9-23, 16-30), the IC50 is 0.75 µM in assay [1] (setting [4]), 0.48 µM in assay [2] (setting [5]) and 26 µM in assay [3] (setting [6]).

As to `CC[C@H](C)[C@@H]1NC(=O)[C@@H]2CSSC[C@@H]3NC(=O)[C@H](C(C)C)NC(=O)[C@H](CC(C)C)NC(=O)[C@H](CC(N)=O)NC(=O)[C@@H]4CCCN4C(=O)[C@H](CCCNC(=N)N)NC(=O)[C@H](CSSC[C@H](NC(=O)[C@@H](N)CC(=O)O)C(=O)N[C@@H](CC(C)C)C(=O)NCC(=O)N[C@@H](Cc4ccccc4)C(=O)N[C@@H](CCSC)C(=O)N[C@@H](CCCNC(=N)N)C(=O)N[C@@H](CCCCN)C(=O)N2)NC(=O)[C@H](CSSC[C@@H](C(=O)N[C@@H](CCCCN)C(=O)N[C@@H](Cc2ccc(O)cc2)C(=O)N[C@H](C(=O)N[C@@H](Cc2ccccc2)C(N)=O)C(C)C)NC(=O)[C@H](Cc2c[nH]c4ccccc24)NC(=O)[C@H](CCCCN)NC(=O)[C@H](Cc2c[nH]cn2)NC(=O)[C@H]([C@@H](C)O)NC(=O)[C@H](CCCCN(C)C)NC(=O)[C@H](CO)NC3=O)NC(=O)[C@H](CCCCN)NC(=O)[C@H](CC(=O)O)NC(=O)[C@H](CC(N)=O)NC(=O)[C@H](CC(=O)O)NC(=O)[C@@H]2CCCN2C1=O` [compound 335] (H-DCLGFMRKCIPDNDKCCRPNLVCS[Lys(Me2)]THKWCKYVF-NH2; disulfide 2-17, 9-23, 16-30), the IC50 in assay [1] (setting [7]) was determined as 0.11 µM; in assay [2] (setting [8]), 0.31 µM; in assay [3] (setting [9]), 7.93 µM.

Take `CC[C@H](C)[C@@H]1NC(=O)[C@@H]2CSSC[C@@H]3NC(=O)[C@H](C(C)C)NC(=O)[C@H](CC(C)C)NC(=O)[C@H](CC(N)=O)NC(=O)[C@@H]4CCCN4C(=O)[C@H](CCCNC(=N)N)NC(=O)[C@H](CSSC[C@H](NC(=O)[C@@H](N)CC(=O)O)C(=O)N[C@@H](CC(C)C)C(=O)NCC(=O)N[C@@H](Cc4ccccc4)C(=O)N[C@@H](CCSC)C(=O)N[C@@H](CCCNC(=N)N)C(=O)N[C@@H](CCCCN)C(=O)N2)NC(=O)[C@H](CSSC[C@@H](C(=O)N[C@@H](CCCCN)C(=O)N[C@@H](Cc2ccc(O)cc2)C(=O)N[C@H](C(=O)N(C)[C@@H](Cc2ccccc2)C(N)=O)C(C)C)NC(=O)[C@H](Cc2c[nH]c4ccccc24)NC(=O)[C@H](CCCCN)NC(=O)[C@H](Cc2c[nH]cn2)NC(=O)[C@H]([C@@H](C)O)NC(=O)[C@H](CCCNC(=N)N)NC(=O)[C@H](CO)NC3=O)NC(=O)[C@H](CCCCN)NC(=O)[C@H](CC(=O)O)NC(=O)[C@H](CC(N)=O)NC(=O)[C@H](CC(=O)O)NC(=O)[C@@H]2CCCN2C1=O` [compound 408]: the IC50 in assay [1] (IonWorks Quattro, use-dependent, […], read-out: IWQ Use Nav1.3) was determined as 4.56 µM; in assay [2] (IonWorks Quattro, use-dependent, […], read-out: IWQ Use Nav1.7) it was 10 µM; in assay [3] (IonWorks Quattro, use-dependent, […], read-out: IWQ Use Nav1.5), 18.8 µM.

The values above are taken from patent publication US9340590B2 (priority 2011, dated 2016).
